Measured values published in paper PMC5108032, “Discovery of a Quinoline-4-carboxamide Derivative with a Novel Mechanism of Action, Multistage Antimalarial Activity, and Potent in Vivo Efficacy” (Journal of Medicinal Chemistry, 2016).
Several values for one entry are separate records, joined by “and”; a condition that tells them apart may be missing. Equal values may be shown once.

Experiments:
P. berghei ANKA strain = assay: In vivo antimalarial efficacy in the P. berghei mouse model (Peter's test); design: species or system Plasmodium berghei in female NMRI mice; details: 4 × 30 mg/kg oral, once daily; mice cured / mice in group; 30 mg/kg
Experimental: Compound 41 was dosed as a bolus solution intravenously at 1 mg free base/kg (dose volume: 5 mL/kg; dose vehicle: 5% DMSO;saline) or by gavage orally as solution at 3 mg free base/kg (dose volume: 10 mL/kg; Dose vehicle: 0.5% w/v hydroxypropylmethylcellulose with 0.4% v/v Tween 80 and 0.5% v/v benzyl alcohol) to male Sprague Dawley rats (n=3/dose route). Blood samples were taken from each rat at 5, 15, 30 min, 1, 2, 4, 6, 8, 24 and 30 h post-dose, mixed with two volumes of distilled water and stored frozen until UPLC/MS/MS analysis.
Pharmacokinetic parameters were derived from the blood concentration time curve for each compound using PKsolutions software v 2.0 (Summit Research Services, USA).
In vivo antimalarial efficacy studies in P. berghei. (Swiss TPH)
In vivo efficacy was conducted as previously described10 with the modification that female NMRI mice (n = 3) were infected with a GFP-transfected P. berghei ANKA strain (donated by A. P. Waters and C. J. Janse, Leiden University, The Netherlands), and parasitaemia determined (96 h after infection) using standard flow cytometry techniques. Compounds 1, 25, 27, 30 and 49 were prepared in 10% DM SO, 40% PEG 400 and 50% water prior to administration orally, once daily for 4 days.
Compounds 40, 41, 43 and 44 were prepared in a non-solubilizing, standard suspension vehicle called HPMC (0.5% [wt/vol] hydroxypropylmethylcellulose, 0.5% [vol/vol] benzyl alcohol, 0.4% [vol/vol] Tween 80, and 0.9% [wt/vol] sodium chloride in water) prior to administration orally, once daily for 4 days. Blood samples were collected on day 4 (96 h after infection) in two volumes water. Animals […]
and then hourly up to 4 h after dosing each day. The animals were selected randomly for each group

[1] = Mammalian cell growth inhibition counter-screen (resazurin); format: cell-based, human; details: human, MRC-5 cells (normal diploid human fibroblasts)
Experimental: Plasmodium falciparum screening
Assays against P. falciparum were conducted as previously described.1 Cultures of the widely-used malaria reference strain of chloroquine-sensitive Plasmodium falciparum strain 3D7 were maintained in a 5% suspension of human red blood cells (obtained from East of Scotland Blood Transfusion Service, Ninewells Hospital, Dundee) cultured in RPMI 1640 medium (pH 7.3) supplemented with 0.5% Albumax II (Gibco Life Technologies, San Diego, CA), 12 mM sodium bicarbonate, 0.2 mM hypoxanthine and 20 mg/L gentamicin at 37°C, in a humidified atmosphere of 1% O 2, 3% CO2 with a balance of nitrogen. Growth inhibition was quantified using a fluorescence assay utilising the binding of SYBR green to double stranded DNA, which emits a fluorescent signal at 528 nm after excitation at 485nm.2 Mefloquine (potency range 30-60 nM) was used as a drug control to monitor the quality of the assay (Z’ = 0.6 to 0.8, Signal to background >3, where Z’ is a measure of the discrimination between the positive and negative controls on a screen plate). A 96-well [3H]-Hypoxanthine incorporation assay was also developed as a secondary assay in order to validate compounds from the initial screen in an orthogonal platform.3 Compound bioactivity from both assays was expressed as […]
P. falciparum (panel of resistant strains) in vitro assay. (Swiss TPH)
All Plasmodium strains were cultured according to Trager and Jensen and are described at www.beiresources.org (resistant strains: K1, W2, 7G8, TM90C2A, D6 and V1/S, sensitive strain:
NF54). EC50 values were determined in vitro by measuring incorporation of the nucleic acid precursor […]
Mammalian Cell Growth Inhibition assay
A counter-screen against normal diploid human fibroblasts (MRC-5 cell line) was carried out to exclude non-selective, and toxic compounds. The assay was essentially carried out as described previously.4 Cells were plated and incubated overnight to allow them to adhere as monolayers. A working stock of each test compound was transferred to an intermediate 384-well plate and pre-diluted with minimum essential media (MEM). The pre-diluted stocks were then transferred onto the cell monolayers, and the plates were incubated for 68 h. Resazurin, to a final concentration of 50 μM, was added to each well, after which plates were incubated for a further 3 h and measured for fluorescence (λex=528 nm, λem=590 nm)
In vitro Cell Assay Data Analysis.
All data was processed using IDBS ActivityBase® raw data was converted into per cent inhibition through linear regression by setting the high inhibition control as 100% and the no inhibition control as 0%. Quality control criteria for passing plates were as follows: Z’> 0.5, S:B> 3, %CV(no inhibition < 15 . The formula used to calculate Z’ is 1 3× (St D e v _ hi gh + St D e v _ low) . […]
All EC50 Curve fitting was undertaken using XLFit version 4.2 using Model 205 with the following 4 parametric equation: y = A + B A A + ($-&) ,where A=% inhibition at bottom, B=% […]
inhibition at top, C= EC50, D= slope, x= inhibitor concentration and y= % inhibition. […]
reach 100% of inhibition, B was fixed to 100 only when at least 50% of inhibition was reached.
Plasmodium falciparum late stage (IV-V) gametocyte high content imaging assay Plasmodium falciparum NF54-pfs16-LUC-GFP stage IV-V Gametocytes were produced as described previously.5 Compounds were solubilized in DMSO and serially diluted in three concentrations per log standard curves in DM SO. One µl of compound was subsequently diluted in 25µl of water (4% DMSO) and 5µl transferred into the base of 384 well PerkinElmer CellCarrier plates. Forty-five µl of stage IV-V gametocytes (10%P in 0.1%H) were added to the imaging plates which were in turn sealed with a gas permeable membrane and incubated at 37°C, 5% CO 2, 5% O2, 90% N2 and 60% humidity […]
Post incubation, 5µl of MitoTracker® Red CM -H2Xros (MTR) solution (0.66ug/ml) was added to all wells and the plates incubated for a further 16hours. […]

Row | SMILES | cure (P. berghei ANKA strain) | EC50 at 68 h [1] [µM]
1 | O=C(NCCN1CCCC1)c1cc(NCCCCN2CCOCC2)nc2ccc(Cl)cc12 [Compound 27, 6-Chloro-2-((4-morpholinobutyl)amino)-N-(2-(pyrrolidin-1-yl)ethyl)quinoline-4-carboxamide] | one out of three and 1/3 | –
2 | O=C(NCCN1CCCC1)c1cc(-c2ccc(CN3CCOCC3)cc2Cl)nc2ccc(F)cc12 [Compound 42, 2-(2-Chloro-4-(morpholinomethyl)phenyl)-6-fluoro-N-(2-(pyrrolidin-1-yl)ethyl)quinoline-4-carboxamide] | – | > 50
